Laboratory results from patent EP4559896A1, “PH-SENSITIVE CATIONIC LIPID AND LIPID NANOPARTICLE” (National University Corporation Hokkaido University, priority 2022, dated 2024).

How the values were obtained:
[1] = average particle size and polydispersity index by dynamic light scattering; type: physicochemical; conditions: Fluc mRNA-loaded lipid nanoparticles
Method: The average particle size (number average value), ζ-average particle size, and polydispersity index (PdI) of the lipid nanoparticles in PBS(-) (pH 7.4), and the zeta potential in 10 mM HEPES buffer (pH 7.4) were measured using an analyzer "Zetasizer Nano ZS ZEN3600" (manufactured by Malvern) utilizing dynamic light scattering.

[2] = encapsulation rate of lipid nanoparticles (RiboGreen); type: physicochemical; conditions: Fluc mRNA-loaded lipid nanoparticles
Method: The encapsulation rate of the lipid nanoparticles was determined by measuring the amount of encapsulated nucleic acid (mRNA) using RiboGreen (manufactured by Life Technologies), which is an RNAintercalator. The amount of mRNA was quantified based on a calibration curve prepared from a dilution series solution of mRNA at a known concentration.
Specifically, 10 mM HEPES buffer (pH 7.4), 10 w/v% Triton X-100, and RiboGreen were mixed at 978.8 µL, 20 µL, and 1.25 µL per 10 wells, respectively, to obtain a Triton(+) buffer. A Triton(-) buffer was obtained in replacing Triton X-100 with 10 mM HEPES buffer (pH 7.4). 100 µL/well of the sample was added to a black 96-well plate for fluorescence measurement, and 100 µL/well of Triton(+) buffer or Triton(-) buffer was added. After the plate was gently shaken on a shaking incubator (SI-300, manufactured by AS ONE) (700 rpm, 30 seconds), the fluorescence intensity of each well was measured using a microplate reader (VARIOSKAN LUX, manufactured by Thermo Fisher Scientific) (wavelength Ex/Em=500 nm/525 nm), and the nucleic acid encapsulation rate (%) was calculated.

BALB/c mice = test: Fluc activity in tissues of mice administered with Fluc mRNA-loaded lipid nanoparticles; type: in vivo; conditions: for luciferase activity in the lung compared with control mice (CL4F6-containing lipid nanoparticles) / luciferase activity in the heart compared with control mice (CL4F6-containing lipid nanoparticles) / luciferase activity in the muscle compared with control mice (CL4F6-containing lipid nanoparticles) / luciferase activity in the spleen compared with control mice (CL4F6-containing lipid nanoparticles): TOT/DSPC/chol/PEG-DMG=65/15/20/1.5, control CL4F6/DSPC/chol/PEG-DMG=50/10/40/1.5 (mol%)
Method: Lipid nanoparticles were administered to mice by intravenous injection into the tail vein using a 27G needle. Unless otherwise specified, BALB/c mice (4 to 5 weeks old, female) were used.
First, BALB/c mice (female, 4 weeks old) were intravenously injected with lipid nanoparticles encapsulating Fluc mRNA (Fluc mRNA-loaded lipid nanoparticles) at a dose of 0.01 mg mRNA/kg. Six hours after intravenous injection, the mice were euthanized, each tissue was collected, frozen in liquid nitrogen, and stored at -80°C. The tissues were homogenized in passive lysis buffer (manufactured by Promega) using a bead-type cell disruptor (Micro Smash MS-100R, manufactured by TOMY Seiko). Tissue debris was removed by centrifugation, and the supernatant was collected. Fluc activity in the supernatant was measured using the Luciferase Assay System (E1500, manufactured by Promega) according to the manufacturer's protocol. Luminescence was measured using a luminometer (Luminescencer-PSN, manufactured by ATTO). Protein concentration was determined using a commercially available assay kit (BCA Protein Assay Kit, manufactured by Pierce). Fluc activity was expressed as relative light units (RLU) per mg of protein.
Specifically, first, each lipid nanoparticle was intravenously administered into the tail vein of mice in an amount of 0.2 mg/kg of Fluc mRNA, and 6 hours after administration of the lipid nanoparticles, about 50 mg each of the liver, spleen, lung, heart, brain, and muscle was collected and stored frozen. 500 µL of passive lysis buffer (manufactured by Promega) was added to each tube containing the collected organ. The liver was homogenized at 4000 rpm for 20 seconds twice, the spleen, kidney, lung, and heart were homogenized at 5000 rpm for 20 seconds twice, and the muscle was homogenized at 5000 rpm for 20 seconds four times; then, the homogenate was centrifuged at 13000 rpm at 4°C for 10 minutes, and the supernatant was collected as a sample for measurement. The liver and spleen were diluted 100 times with passive lysis buffer. 50 µL of a measurement sample (tissue supernatant) was mixed with 50 µL of luciferase assay buffer of the Luciferase Assay System (E1500, manufactured by Promega) previously added in a test tube by pipetting, and the amount of luminescence was measured with a luminometer. Protein concentration was determined using a commercially available assay kit (BCA Protein Assay Kit, manufactured by Pierce). Fluc activity was expressed as relative light units (RLU) per mg of protein.

[3] = TOT-4/DSPC/chol/PEG-DMG=65/15/20/1.5, CL4F6/DSPC/chol/PEG-DMG=50/10/40/1.5 (mol%)
[4] = TOT/DSPC/chol/PEG-DMG=65/15/20/1.5 (mol%)
[5] = Example 16, TOT/DSPC/chol/PEG-DMG=65/15/20/1.5 (mol%), i.v. tail vein
[6] = Example 15, TOT-4/PC/chol/PEG-DMG=65/15/20/1 (mol%), PC = DSPC, i.v. tail vein

Row | Molecule | Encapsulation Rate [2, 4] [%] | PdI [1, 4] | ζ-Average Particle Size [1, 4] [nm] | luciferase activity in the lung compared with control mice (CL4F6-containing lipid nanoparticles) (BALB/c mice; Example 33, i.v. tail vein) | also measured
1 | 7-(4-(diisopropylamino)butyl)-13-((2-hexylnonanoyl)oxy)-7-hydroxytridecyl 2-hexyldecanoate [CL4F6, reference compound] | – | – | – | – | Number Average Particle Size [1, 3]: 59.4 nm; PdI [1, 3]: 99.0; ζ-Average Particle Size [1, 3]: 90.7 nm
2 | CCCCCCCC/C=C\CCCCCCCC(=O)OCC(COC(=O)CCCCCCC/C=C\CCCCCCCC)(COC(=O)CCCCCCC/C=C\CCCCCCCC)NC(=O)CCN(C)C [TOT-1, 2-(3-(dimethylamino)propanamido)-2-((oleoyloxy)methyl)propane-1,3-diyl dioleate] | 85.9 | 0.324 | 138.0 | – | –
3 | CCCCCCCC/C=C\CCCCCCCC(=O)OCC(COC(=O)CCCCCCC/C=C\CCCCCCCC)(COC(=O)CCCCCCC/C=C\CCCCCCCC)NC(=O)CCCN(C)C [TOT-2, 2-(4-(dimethylamino)butanamido)-2-((oleoyloxy)methyl)propane-1,3-diyl dioleate] | 92.3 | 0.347 | 166.2 | higher | Fluc activity (RLU/mg protein) in the liver (BALB/c mice; [5]): confirmed in the liver in all the mice except for those administered with Fluc mRNA-loaded lipid nanoparticles using TOT-2
4 | CCCCCCCC/C=C\CCCCCCCC(=O)OCC(COC(=O)CCCCCCC/C=C\CCCCCCCC)(COC(=O)CCCCCCC/C=C\CCCCCCCC)NC(=O)C1CCN(C)CC1 [TOT-3, 2-(1-methylpiperidine-4-carboxamide)-2-((oleoyloxy)methyl)propane-1,3-diyl dioleate] | 92.3 | 0.344 | 167.2 | higher | –
5 | CCCCCCCC/C=C\CCCCCCCC(=O)OCC(COC(=O)CCCCCCC/C=C\CCCCCCCC)(COC(=O)CCCCCCC/C=C\CCCCCCCC)NC(=O)CCN(CC)CC [TOT-4, 2-(3-(diethylamino)propanamido)-2-((oleoyloxy)methyl)propane-1,3-diyl dioleate] | 83.5 | 0.157 | 134.3 | higher | Encapsulation Rate [2, 3]: 0.157%; Fluc activity (RLU/mg protein) in the liver and spleen (BALB/c mice; Example 13, TOT/DOPE/chol/PEG-DMG=60/15/25/1.0 (mol%), i.v. tail vein): very high; Fluc activity in the spleen compared with the liver (BALB/c mice; Example 15, TOT-4/PC/chol/PEG-DMG=65/15/20/1 (mol%), PC = DPPC, i.v. tail vein): higher Fluc activity in the spleen than in the liver; Fluc activity (RLU/mg protein) in the liver and spleen (BALB/c mice; Example 15, TOT-4/PC/chol/PEG-DMG=65/15/20/1 (mol%), PC = DSPC, DPPC, POPC, or DOPC, i.v. tail vein): confirmed; Fluc activity (RLU/mg protein) in the liver (BALB/c mice; [6]): relatively suppressed; Fluc activity in the spleen compared with the liver (BALB/c mice; [6]): higher Fluc activity in the spleen than in the liver; Fluc activity (RLU/mg protein) in the spleen (BALB/c mice; [5]): very high; gene expression in the spleen, times higher than Fluc mRNA-loaded lipid nanoparticles using RNA-LPX (BALB/c mice; Example 17, TOT-4/DSPC/chol/PEG-DMG=65/15/20/1.5 (mol%) versus RNA-LPX (DOTMA/DOPE=50/50 mol%), i.v. tail vein): 24 times; gene expression in the spleen and liver (BALB/c mice; Example 18, TOT-4/DSPC/chol/PEG-DMG=65/15/20/1.5 (mol%), similar to CL4F6/DSPC/chol/PEG-DMG=50/10/40/1.5, i.v. tail vein): high; luciferase activity in the spleen, lung, brain, heart, and muscle compared with CL4F6-containing lipid nanoparticles (BALB/c mice; Example 19, TOT-4/DSPC/chol/PEG-DMG=65/15/20/1.5 versus CL4F6/DSPC/chol/PEG-DMG=50/10/40/1.5 (mol%), i.v. 0.2 mg/kg of Fluc mRNA, 6 hours, N=3): higher; luciferase activity in the brain (BALB/c mice; Example 33, TOT/DSPC/chol/PEG-DMG=65/15/20/1.5 (mol%), i.v. tail vein): remarkably high; luciferase activity in the heart compared with control mice (CL4F6-containing lipid nanoparticles) (BALB/c mice; Example 33, i.v. tail vein): very high; luciferase activity in the muscle compared with control mice (CL4F6-containing lipid nanoparticles) (BALB/c mice; Example 33, i.v. tail vein): very high; luciferase activity in the spleen compared with control mice (CL4F6-containing lipid nanoparticles) (BALB/c mice; Example 33, i.v. tail vein): higher; Number Average Particle Size [1, 3]: 33.5 nm; ζ-Average Particle Size [1, 3]: 134.3 nm
6 | CCCCCCCC/C=C\CCCCCCCC(=O)OCC(COC(=O)CCCCCCC/C=C\CCCCCCCC)(COC(=O)CCCCCCC/C=C\CCCCCCCC)NC(=O)CN [TOT-6, 2-(2-aminoacetamido)-2-((oleoyloxy)methyl)propane-1,3-diyl dioleate] | 95.4 | 0.190 | 102.5 | – | –
7 | CCCCCCCC/C=C\CCCCCCCC(=O)OCC(COC(=O)CCCCCCC/C=C\CCCCCCCC)(COC(=O)CCCCCCC/C=C\CCCCCCCC)NC(=O)CNC [TOT-7, 2-(2-(methylamino)acetamido)-2-((oleoyloxy)methyl)propane-1,3-diyl dioleate] | 92.4 | 0.232 | 128.0 | – | luciferase activity in the heart compared with control mice (CL4F6-containing lipid nanoparticles) (BALB/c mice; Example 33, i.v. tail vein): higher
8 | CCCCCCCC/C=C\CCCCCCCC(=O)OCC(COC(=O)CCCCCCC/C=C\CCCCCCCC)(COC(=O)CCCCCCC/C=C\CCCCCCCC)NC(=O)[C@@H](N)CO [TOT-8, 2-((S)-2-amino-3-hydroxypropanamido)-2-((oleoyloxy)methyl)propane-1,3-diyl dioleate] | 85.7 | 0.213 | 87.1 | – | –
9 | CCCCCCCC/C=C\CCCCCCCC(=O)OCC(COC(=O)CCCCCCC/C=C\CCCCCCCC)(COC(=O)CCCCCCC/C=C\CCCCCCCC)NC(=O)CCN(C)CC [TOT-16, 2-(3-(ethyl(methyl)amino)propanamido)-2-((oleoyloxy)methyl)propane-1,3-diyl dioleate] | 87.6 | 0.180 | 99.2 | – | luciferase activity in the heart compared with control mice (CL4F6-containing lipid nanoparticles) (BALB/c mice; Example 33, i.v. tail vein): higher; luciferase activity in the muscle compared with control mice (CL4F6-containing lipid nanoparticles) (BALB/c mice; Example 33, i.v. tail vein): higher; luciferase activity in the spleen compared with control mice (CL4F6-containing lipid nanoparticles) (BALB/c mice; Example 33, i.v. tail vein): higher
10 | CCCCCCCC/C=C\CCCCCCCC(=O)OCC(COC(=O)CCCCCCC/C=C\CCCCCCCC)(COC(=O)CCCCCCC/C=C\CCCCCCCC)NC(=O)C1CCN(CC)CC1 [TOT-18, 2-(1-ethylpiperidine-4-carboxamide)-2-((oleoyloxy)methyl)propane-1,3-diyl dioleate] | 92.2 | 0.319 | 130.0 | higher | luciferase activity in the muscle compared with control mice (CL4F6-containing lipid nanoparticles) (BALB/c mice; Example 33, i.v. tail vein): very high
11 | CCCCCCCC/C=C\CCCCCCCC(=O)OCC(COC(=O)CCCCCCC/C=C\CCCCCCCC)(COC(=O)CCCCCCC/C=C\CCCCCCCC)NC(=O)C1CCN(C)C1 (centres unmarked) [TOT-20, 2-(1-methylpyrrolidine-3-carboxamide)-2-((oleoyloxy)methyl)propane-1,3-diyl dioleate] | 94.7 | 0.263 | 201.8 | – | –
